Measured values taken from EP0440298A1, “Topical preparations for treating human nails” (BROCADES PHARMA B.V., priority 1990, dated 1991).
Each block holds one molecule with its values, some of them ahead of it.

Key:
[1] = Weight increase of nail clippings during immersion in a lotion (Example 1); design: species or system Human
Method: Solutions (lotions) were prepared, containing (v/v) 40% of distilled water, 40% of methyl ethyl ketone and 20% of isopropyl alcohol.
To these lotions were added salicylic acid, NAC, 1,4-dithiothreitol or mercaptoethylamine, in w/v concentrations as further specified in Table 1.
To distilled water were added glutathione, mercaptoethanol or urea, in w/v concentrations as further specified in Table 1.
(§1) Human nail clippings were immersed in the test and control lotions at ambient temperature and their weight increase expressed as % of their original weight.

[2] = Penetration of the hydrophilic dye eosine in nail clippings during immersion in a lotion (Example 2); format: in vitro ADME, Human; details: lotion with 17% NAC and 1% of eosine; immersion 48 hours at room temperature; microscopic freeze sections
Method: (§2) To a similar solution (lotion) as in Example 1, consisting of (v/v) 40% distilled water, 40% of methyl ethyl ketone and 20% of isopropyl alcohol, were added (w/v) 17% of NAC and 1% of eosine.
(§3) Human nail clippings were immersed in this liquid and in the same liquid without NAC (n = 2 x 3) during 48 hours at room temperature, after which the colour penetration was estimated on microscopic freeze sections.

[3] = Penetration of eosine in nail clippings after immersion in a lotion (pretreatment, Example 3); format: in vitro ADME, Human; details: pretreatment in NAC lotion lacking eosine, then 24 hours in lotion with 1% eosine lacking NAC
Method: as §2, §3
The same experimental set-up as in Example 2 was used, except that the nail clippings were first immersed in lotions lacking eosine, and subsequently during 24 hours in lotions containing 1% eosine but lacking NAC. n was again 2 x 3.

[4] = Weight increase of nail clippings on dorsal application of a film-forming lotion (Example 4); design: species or system Human; details: film-forming lotion with 20 parts of NAC painted on dorsal surface twice a day; after 3 days (no further change up to 6 days)
Method: (§4) A film-forming lotion was prepared, consisting by weight of 17.5 parts of distilled water, 17.5 parts of ethanol, 20 parts of acetone, 25 parts of polyvinylpyrrolidone VA-S630 and 20 parts of NAC. The control film-forming lotion lacked the NAC.
(§5) Human nail clippings (n = 2 x 3) were laid on pads soaked in saline, and the two types of film-forming lotion were painted on their dorsal surface twice a day. The weights of the clippings were determined after 3, 4, 5 and 6 days.

[5] = Penetration of eosine in nail clippings after dorsal application of a film-forming lotion (Example 4); format: in vitro ADME, Human; details: after 6 days of film-forming lotion treatment, then 24 hours in 1% eosine solution without NAC
Method: as §4, §5
After the above 6 days of treatment, the (2 x 3) clippings were rinsed and placed for 24 hours in a solution of 1% eosine, as described in Example 2 (without NAC), and then further processed for the microscopic estimation of dye penetration as in Example 2. The average penetration of the dye through the NAC-penetrated nails was 48% of the nail thickness, compared to 6% in the controls.

[6] = Effect of NAC-containing lotion on the penetration of 14C oxiconazole in nail discs (Example 6); format: in vitro ADME, human; details: 20% w/v NAC lotion with 1% w/v oxiconazole; 48 hours at 30°C
Method: A 20% w/v NAC-containing lotion and a control lotion were prepared as in Example 1.
To both these preparations was added 1% w/v of oxiconazole, containing a known amount (1 µCi per 30 µl) of radioactive ¹⁴C oxiconazole.
(§6) On human nail discs of 6 mm diameter were mounted 1.5 cm pieces of tubing of 4 mm outer and 3 mm inner diameter, in each of which was poured 30 µl of one of the above lotions (n = 2 x 3). The free (ventral) surfaces of the nail discs were kept moist on a pad soaked in saline.
(§7) After 48 hours of incubation at 30°C and the discs were sectioned (50 µm) parallel to their dorsal surface, using a freeze-microtome. Radioactivity was measured in the separate sections, after which the amount of penetrated oxiconazole was calculated.

[7] = Effect of pretreatment with NAC-containing film-forming lotion on the penetration of oxiconazole in nail discs (Example 7); format: in vitro ADME, Human
Method: A 20% w/v NAC-containing film-forming lotion and a control film-forming lotion were prepared as in Example 4.
(§8) Human nail discs of 6 mm diameter, resting with their ventral side on pads soaked with saline, were dorsally painted with these film-forming lotions (n = 2 x 3) twice daily during 5 days. Then the six nail discs were rinsed and mounted on pieces of tubing as in Example 6. Subsequently 20 mg of ¹⁴C oxiconazole was added to 30 ml of Oceral® lotion (i.e. 1% oxiconazole in an alcoholic base). Of this, 30 µl was poured into the tubings on top of the dorsal surfaces of the discs as in Example 6. The free (ventral) surfaces of the nail discs were again kept moist on a pad soaked in saline.
(§9) After 48 hours of incubation at 30°C and 60% relative humidity the discs were sectioned (50 µm) parallel to their dorsal surface, using a freeze-microtome. Radioactivity was measured in the separate sections, after which the amount of penetrated oxiconazole was calculated.

[8] = Effect of pretreatment with cream on the penetration of oxiconazole in nail discs (Example 8); format: in vitro ADME, Human; details: pretreatment with cream twice daily during 5 days, then Oceral lotion (1% oxiconazole) 48 hours at 30°C, 60% relative humidity
Method: A NAC-containing cream and a control cream were prepared as in Example 5.
as §8, with “creams” for “film-forming lotions”
as §9

[9] = Comparison of sulfhydryl compounds: weight increase of nail clippings during immersion in a lotion (Example 10); design: species or system human; details: 0.1 M in lotion of 50% v/v ethanol in distilled water
Method: as §1
The effects of 0.1 M of each of NAC (pH 2.3), 1,4-dithiothreitol (DTT, not claimed, pH 4.5) and ammonium thioglycolate (ATG, not claimed, pH 9.0), in a lotion consisting of 50% v/v ethanol in distilled water were compared, as in Example 1. The immersion period of the human nail clippings in the control and test lotions was 72 hours.

[10] = format: in vitro ADME, human
Method: as §6, §7
To lotions consisting of 50% v/v of ethanol in distilled water were added 0.1 M of NAC (pH 2.3), of 1,4-dithiothreitol (DTT, not claimed, pH 4.5) or of ammonium thioglycolate (ATG, not claimed, pH 9.0), as in Example 10. To all three solutions was also added 1% w/v of oxiconazole, containing a known amount (1 µCi per 30 µl) of radioactive ¹⁴C oxiconazole. These lotions were tested in an experimental set-up as in Examples 6 and 9.

SMILES: N[C@@H](CCC(=O)N[C@@H](CS)C(=O)NCC(=O)O)C(=O)O [Glutathione, glutathione]
- Average % weight increase during immersion (hours) ([1]; 10 % w/v in distilled water, 1 hour): 30%
- Average % weight increase during immersion (hours) ([1]; 10 % w/v in distilled water, 3 hours): 32%
- Average % weight increase during immersion (hours) ([1]; 10 % w/v in distilled water, 6 hours): 33%
- Average % weight increase during immersion (hours) ([1]; 10 % w/v in distilled water, 24 hours): 44%
- Average % weight increase during immersion (hours) ([1]; 10 % w/v in distilled water, 48 hours): 58%
- Average % weight increase during immersion (hours) ([1]; 10 % w/v in distilled water, 72 hours): 61%

- average penetration of the dye, % of the total nail thickness [2]: 27.5%
- average penetration of the dye [3]: 19%
- average penetration of the dye, % of the nail thickness [5]: 48%
- average total uptake of oxiconazole (expressed as a % of the total amount of oxiconazole applied) [6]: 4.94%
- average radioactivity in the three pads under the discs ([7]; pretreatment with film-forming lotion 5 days, then 14C oxiconazole in Oceral lotion 48 hours): 7.53%
- average total uptake of oxiconazole (expressed as a % of the total amount of oxiconazole applied) ([7]; pretreatment with film-forming lotion twice daily during 5 days, then Oceral lotion (1% oxiconazole) 48 hours at 30°C, 60% relative humidity): 3.25%
- average total uptake of oxiconazole (expressed as a % of the total amount of oxiconazole applied) [8]: 4.0%
- Average amount of oxiconazole (μg), Total [10]: 15.17 µg
SMILES: CC(=O)N[C@@H](CS)C(=O)O [NAC, N-acetyl-cysteine]
- Average % weight increase during immersion (hours) ([1]; 5 % w/v in lotion, 1 hour): 23%
- Average % weight increase during immersion (hours) ([1]; 5 % w/v in lotion, 3 hours): 32%
- Average % weight increase during immersion (hours) ([1]; 5 % w/v in lotion, 6 hours): 38%
- Average % weight increase during immersion (hours) ([1]; 5 % w/v in lotion, 24 hours): 47%
- Average % weight increase during immersion (hours) ([1]; 5 % w/v in lotion, 48 hours): 60%
- Average % weight increase during immersion (hours) ([1]; 5 % w/v in lotion, 72 hours): 70%
- Average % weight increase during immersion (hours) ([1]; 10 % w/v in lotion, 1 hour): 24%
- Average % weight increase during immersion (hours) ([1]; 10 % w/v in lotion, 3 hours): 33%
- Average % weight increase during immersion (hours) ([1]; 10 % w/v in lotion, 6 hours): 38%
- Average % weight increase during immersion (hours) ([1]; 10 % w/v in lotion, 24 hours): 59%
- Average % weight increase during immersion (hours) ([1]; 10 % w/v in lotion, 48 hours): 67%
- Average % weight increase during immersion (hours) ([1]; 10 % w/v in lotion, 72 hours): 79%
- Average % weight increase during immersion (hours) ([1]; 20 % w/v in lotion, 1 hour): 23%
- Average % weight increase during immersion (hours) ([1]; 20 % w/v in lotion, 3 hours): 30%
- Average % weight increase during immersion (hours) ([1]; 20 % w/v in lotion, 6 hours): 37%
- Average % weight increase during immersion (hours) ([1]; 20 % w/v in lotion, 24 hours): 60%
- Average % weight increase during immersion (hours) ([1]; 20 % w/v in lotion, 48 hours): 91%
- Average % weight increase during immersion (hours) ([1]; 20 % w/v in lotion, 72 hours): 110%
- Average % weight increase during immersion (hours) ([1]; 40 % w/v in lotion, 1 hour): 24%
- Average % weight increase during immersion (hours) ([1]; 40 % w/v in lotion, 3 hours): 33%
- Average % weight increase during immersion (hours) ([1]; 40 % w/v in lotion, 6 hours): 38%
- Average % weight increase during immersion (hours) ([1]; 40 % w/v in lotion, 24 hours): 71%
- Average % weight increase during immersion (hours) ([1]; 40 % w/v in lotion, 48 hours): 110%
- Average % weight increase during immersion (hours) ([1]; 40 % w/v in lotion, 72 hours): 154%
- weight increase of clippings [4]: 34%
- Average % weight increase after immersion during 72 hours [9]: 72%

SMILES: NCCS [Mercaptoethyl-amine, mercaptoethylamine]
- Average % weight increase during immersion (hours) ([1]; 20 % w/v in lotion, 1 hour): 10%
- Average % weight increase during immersion (hours) ([1]; 20 % w/v in lotion, 3 hours): 16%
- Average % weight increase during immersion (hours) ([1]; 20 % w/v in lotion, 6 hours): 21%
- Average % weight increase during immersion (hours) ([1]; 20 % w/v in lotion, 24 hours): 38%
- Average % weight increase during immersion (hours) ([1]; 20 % w/v in lotion, 48 hours): 55%
- Average % weight increase during immersion (hours) ([1]; 20 % w/v in lotion, 72 hours): 64%

SMILES: O=C(O)c1ccccc1O [Salicylic acid]
- Average % weight increase during immersion (hours) ([1]; 14 % w/v in lotion (water/methyl ethyl ketone/isopropyl alcohol), 1 hour, ambient temperature): 17%
- Average % weight increase during immersion (hours) ([1]; 14 % w/v in lotion, 3 hours): 24%
- Average % weight increase during immersion (hours) ([1]; 14 % w/v in lotion, 6 hours): 26%
- Average % weight increase during immersion (hours) ([1]; 14 % w/v in lotion, 24 hours): 29%
- Average % weight increase during immersion (hours) ([1]; 14 % w/v in lotion, 48 hours): 30%
- Average % weight increase during immersion (hours) ([1]; 14 % w/v in lotion, 72 hours): 30%

- Average amount of oxiconazole (μg), Total [10]: 2.34 µg
SMILES: O=C(O)CS [Ammonium thioglycolate, ammonium thioglycolate]
- Average % weight increase after immersion during 72 hours [9]: 52%

- Average amount of oxiconazole (μg), Total [10]: 10.02 µg
SMILES: O[C@H](CS)[C@H](O)CS (relative stereo) [1,4-Dithiothreitol, 1,4-dithiothreitol]
- Average % weight increase during immersion (hours) ([1]; 20 % w/v in lotion, 1 hour): 21%
- Average % weight increase during immersion (hours) ([1]; 20 % w/v in lotion, 3 hours): 32%
- Average % weight increase during immersion (hours) ([1]; 20 % w/v in lotion, 6 hours): 38%
- Average % weight increase during immersion (hours) ([1]; 20 % w/v in lotion, 24 hours): 51%
- Average % weight increase during immersion (hours) ([1]; 20 % w/v in lotion, 48 hours): 50%
- Average % weight increase during immersion (hours) ([1]; 20 % w/v in lotion, 72 hours): 58%
- Average % weight increase after immersion during 72 hours [9]: 49%

SMILES: NC(N)=O [Urea, urea]
- Average % weight increase during immersion (hours) ([1]; 50 % w/v in distilled water, 1 hour): 22%
- Average % weight increase during immersion (hours) ([1]; 50 % w/v in distilled water, 3 hours): 24%
- Average % weight increase during immersion (hours) ([1]; 50 % w/v in distilled water, 6 hours): 32%
- Average % weight increase during immersion (hours) ([1]; 50 % w/v in distilled water, 24 hours): 35%
- Average % weight increase during immersion (hours) ([1]; 50 % w/v in distilled water, 48 hours): 36%
- Average % weight increase during immersion (hours) ([1]; 50 % w/v in distilled water, 72 hours): 37%
